According to patent US7741350B1 (Cara Therapeutics, Inc., priority 2009, dated 2010):
Read-outs that look alike come from different tables or passages of the source.

Legend:
[1] = target: human CB1 receptor (hCB1) (Homo sapiens, UniProt P21554); test: cAMP assay at human CB1 receptor; assay type: cell-based; details: hCB1R; maximum measurable range 30 μM; read-out: EC50 (Potency at Human CB1 determined by cAMP Assay)
Method in brief: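 Changes in intracellular cAMP measured by TR-FRET (665/615 nm) in forskolin-stimulated cells; cAMP read from a concurrent standard curve. Values normalised between forskolin and forskolin plus 1 μM CP55,940 wells. EC50 and intrinsic activity relative to CP55,940 from four-parameter nonlinear regression.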

male Sprague-Dawley rats = test: Anti-hyperalgesia in the Complete Freund's Adjuvant (CFA) model of inflammatory pain; assay type: in vivo; details: PO dose 3 mg/kg; 1 hr after dosing; thermal hyperalgesia; rat; read-out: % MPE (1 hr), paw withdrawal latency after CFA injection
Method: The anti-hyperalgesic effects of test compounds in the Complete Freund's Adjuvant (CFA) model of inflammatory pain were determined essentially as described in U.S. Pat. No. 7,517,874 using male Sprague-Dawley rats (Hsd: Sprague-Dawley®SD®, Harlan, Indianapolis, Ind.) weighing 200-300 grams.
Test compounds were prepared in a Cremaphor vehicle mixture of 1:1:18 CremophorEL:ethanol:water. Cremophor was obtained from Sigma Chemical (St. Louis, Mo.). The vehicle mixture or vehicle mixture plus test compound were each administered orally.
Assessment of thermal hyperalgesia: Baseline and post-treatment paw withdrawal latencies to a noxious thermal stimulus were measured using a plantar test apparatus (Ugo Basile; obtained from Stoelting, Wood Dale, Ill.). This apparatus generates an infrared heat source that is linearly increasing in intensity. To avoid tissue damage, the power to the heat source was cut off after 20 seconds.
Paw withdrawal latency is defined as the time required for the rat to flick its paw away from the thermal stimulus. Ibuprofen (100 mg/kg, p.o.) was used as the positive control. Paw withdrawal latencies (in seconds) were measured before (naïve paw latency, L1) and 24 hr following (CFA-inflamed paw latency, L2) a single intraplantar injection of 0.1 mL CFA (Sigma-Aldrich, cat F5881, Mycobacterium tuberculosis 1 mg/ml).
Test compounds were administered orally 23 hours following CFA injection; i.e., 1 hour prior to thermal assessment (compound treated CFA-inflamed paw latency, L3). The mean paw withdrawal latency and standard error of the mean (SEM) was determined for the injured paws for each treatment group.
Data were expressed as percent maximum […] effect (% MPE) defined as the percentage of restoration of latency of test compound-treated CFA inflamed paw as compared to the naïve paw latency.

[2] = target: human CB2 receptor (hCB2) (Homo sapiens, UniProt P34972); test: cAMP assay at human CB2 receptor; assay type: cell-based; details: hCB2R, maximum measurable range 30 μM
Method in brief: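 Values expressed as percent of the window between forskolin-stimulated wells and forskolin plus 1 μM CP55,940 wells.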

Rat L5/L6 SNL model = test: Spinal nerve ligation (SNL) model of chronic neuropathic pain; assay type: in vivo; details: two-way repeated measurement ANOVA, Bonferroni post-tests
Method: The SNL model (Kim and Chung, 1992, Pain 50 (3):355-63) was used to induce chronic neuropathic pain in rats. Rats were anesthetized with isoflurane, the left L5 transverse process was removed, and the L5 and L6 spinal nerves were tightly ligated with 6-0 silk suture. The wound was then closed with internal sutures and external staples. Following at least seven days post SNL, baseline, post-injury and post-treatment values for non-noxious mechanical sensitivity were evaluated using eight Semmes-Weinstein filaments (Stoelting, Wood Dale, Ill., USA) with varying stiffness (0.4, 0.7, 1.2, 2.0, 3.6, 5.5, 8.5, and 15 g) according to the up-down method (Chaplan et al., 1994, J. Neurosci. Meth., 53 (1):55-63). Animals were placed on a perforated metallic platform and allowed to acclimate to their surroundings for a minimum of thirty minutes before testing.
Rat L5/L6 SNL model (n=6/group; mean±sem). Sensitivity to non-noxious mechanical stimuli was tested before and at various time points following oral administration of compound (36). The mean and standard error of the mean (SEM) were determined for the injured paw in each treatment group. Since this stimulus is normally not considered painful, significant injury-induced increases in responsiveness in this test are interpreted as a measure of mechanical allodynia.

[3] = EC50 (Potency at Human CB2 determined by cAMP Assay)
[4] = read-out: EC50 (Potency at Human CB2 determined by cAMP Assay)

human CB2 receptor (hCB2), sequence (P34972 whole entry): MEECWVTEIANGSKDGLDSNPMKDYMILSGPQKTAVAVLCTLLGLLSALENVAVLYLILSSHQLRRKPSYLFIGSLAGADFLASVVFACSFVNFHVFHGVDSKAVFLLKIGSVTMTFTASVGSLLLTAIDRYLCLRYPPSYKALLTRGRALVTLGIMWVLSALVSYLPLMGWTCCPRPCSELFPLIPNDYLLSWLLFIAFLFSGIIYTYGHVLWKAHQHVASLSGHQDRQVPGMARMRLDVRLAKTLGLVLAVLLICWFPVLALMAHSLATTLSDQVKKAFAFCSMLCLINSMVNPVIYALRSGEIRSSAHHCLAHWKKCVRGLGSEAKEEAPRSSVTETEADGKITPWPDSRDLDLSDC
human CB1 receptor (hCB1), sequence (P21554 whole entry): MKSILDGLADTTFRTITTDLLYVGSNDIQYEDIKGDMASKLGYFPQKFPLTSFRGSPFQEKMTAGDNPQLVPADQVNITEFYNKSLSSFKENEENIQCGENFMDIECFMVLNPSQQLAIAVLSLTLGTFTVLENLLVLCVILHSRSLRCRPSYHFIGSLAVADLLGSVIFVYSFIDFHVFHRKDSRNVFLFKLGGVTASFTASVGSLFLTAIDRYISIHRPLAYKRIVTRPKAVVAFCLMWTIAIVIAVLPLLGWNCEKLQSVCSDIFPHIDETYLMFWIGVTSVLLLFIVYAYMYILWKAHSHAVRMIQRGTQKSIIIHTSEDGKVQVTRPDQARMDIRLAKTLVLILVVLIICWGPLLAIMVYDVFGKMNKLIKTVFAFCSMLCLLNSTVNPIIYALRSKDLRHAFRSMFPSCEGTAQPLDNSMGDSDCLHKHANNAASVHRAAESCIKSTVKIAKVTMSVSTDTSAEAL

For CN1CCCc2c1c(-c1cc(Cl)ccc1F)nn2C(=O)N[C@H](C(=O)NCCO)C(C)(C)C [Compound 94, (S)-3-(5-chloro-2-fluorophenyl)-N-(1-(2-hydroxyethylamino)-3,3-dimethyl-1-oxobutan-2-yl)-4-methyl-4,5,6,7-tetrahydro-1H-pyrazolo[4,3-b]pyridine-1-carboxamide], the EC50 [1] was under 1000 nM, the inhibition in vivo at 3 mg/kg (male Sprague-Dawley rats) was 27% and the EC50 [2, 3] was under 1000 nM.

Compound CN1CCc2c(c(-c3ccc(F)c(F)c3)nn2C(=O)N[C@H](C(=O)NCCO)C(C)(C)C)C1 [Compound 98, (S)-3-(3,4-difluorophenyl)-N-(1-(2-hydroxyethylamino)-3,3-dimethyl-1-oxobutan-2-yl)-5-methyl-4,5,6,7-tetrahydro-1H-pyrazolo[4,3-c]pyridine-1-carboxamide] has an EC50 [1] of under 1000 nM, an inhibition in vivo at 3 mg/kg (male Sprague-Dawley rats) of 36% and an EC50 [2, 3] of under 1000 nM.

CC(C)(C)[C@H](NC(=O)n1nc(-c2ccc(F)c(F)c2)c2c1CCOC2)C(N)=O [Compound 99, (S)—N-(1-amino-3,3-dimethyl-1-oxobutan-2-yl)-3-(3,4-difluorophenyl)-6,7-dihydropyrano[4,3-c]pyrazole-1(4H)-carboxamide] was tested, and the EC50 [1] was under 1000 nM, the inhibition in vivo at 3 mg/kg (male Sprague-Dawley rats) was 68% and the EC50 [2, 4] was over 1000 nM.

With CN1CCc2c(-c3cc(F)c(F)cc3F)nn(C(=O)N[C@H](C(=O)NCCO)C(C)(C)C)c2C1 [Compound 89, (S)—N-(1-(2-hydroxyethylamino)-3,3-dimethyl-1-oxobutan-2-yl)-6-methyl-3-(2,4,5-trifluorophenyl)-4,5,6,7-tetrahydro-1H-pyrazolo[3,4-c]pyridine-1-carboxamide] the EC50 [1] was under 1000 nM, the inhibition in vivo at 3 mg/kg (male Sprague-Dawley rats) was 52% and the EC50 [2, 3] was under 1000 nM.

In the case of CC(C)(C)[C@H](NC(=O)n1nc(-c2ccc(F)c(F)c2)c2c1CCOC2)C(=O)NCCO [Compound 36, (S)—N-(1-(2-hydroxyethylamino)-3,3-dimethyl-1-oxobutan-2-yl)-3-(3,4-difluorophenyl)-6,7-dihydropyrano[4,3-c]pyrazole-1(4H)-carboxamide], the “Sensitivity to non-noxious mechanical stimuli, significance vs. vehicle-controls” value (Rat L5/L6 SNL model; 3 mg/kg oral) is reported as “significant to p<0.05 vs. vehicle-controls”, the “Sensitivity to non-noxious mechanical stimuli, significance vs. vehicle-controls” value (Rat L5/L6 SNL model; 10 mg/kg oral) is reported as “significant to p<0.001 vs. vehicle-controls” and the “Sensitivity to non-noxious mechanical stimuli, significance vs. vehicle-controls” value (Rat L5/L6 SNL model; 30 mg/kg oral) is reported as “significant to p<0.001 vs. vehicle-controls”. The EC50 [1] was under 1000 nM, the inhibition in vivo at 3 mg/kg (male Sprague-Dawley rats) was 44% and the EC50 [2, 3] was under 1000 nM.

Compound CC(C)(C)[C@H](NC(=O)n1nc(-c2ccc(F)c(F)c2)c2c1COCC2)C(=O)NCCO [Compound 95, (S)-3-(3,4-difluorophenyl)-N-(1-(2-hydroxyethylamino)-3,3-dimethyl-1-oxobutan-2-yl)-4,5-dihydropyrano[3,4-c]pyrazole-1(7H)-carboxamide] has an EC50 [1] of under 1000 nM, an inhibition in vivo at 3 mg/kg (male Sprague-Dawley rats) of 41% and an EC50 [2, 3] of under 1000 nM.

Work on CN1CCc2c(-c3cc(F)ccc3F)nn(C(=O)N[C@H](C(=O)NCCO)C(C)(C)C)c2C1 [Compound 93, (S)-3-(2,5-difluorophenyl)-N-(1-(2-hydroxyethylamino)-3,3-dimethyl-1-oxobutan-2-yl)-6-methyl-4,5,6,7-tetrahydro-1H-pyrazolo[3,4-c]pyridine-1-carboxamide] yielded an EC50 [1] of under 1000 nM, an inhibition in vivo at 3 mg/kg (male Sprague-Dawley rats) of 28% and an EC50 [2, 3] of under 1000 nM.

Compound CC(C)(C)[C@H](NC(=O)n1nc(-c2ccc(Cl)cc2F)c2c1CCOC2)C(=O)NCCO [Compound 88, (S)-3-(4-chloro-2-fluorophenyl)-N-(1-(2-hydroxyethylamino)-3,3-dimethyl-1-oxobutan-2-yl)-6,7-dihydropyrano[4,3-c]pyrazole-1(4H)-carboxamide] has an EC50 [1] of under 1000 nM, an inhibition in vivo at 3 mg/kg (male Sprague-Dawley rats) of 47% and an EC50 [2, 4] of under 1000 nM.

CC(C)(C)[C@H](NC(=O)n1nc(-c2cc(Cl)ccc2F)c2c1CCOC2)C(=O)NCCO [Compound 86, (S)-3-(5-chloro-2-fluorophenyl)-N-(1-(2-hydroxyethylamino)-3,3-dimethyl-1-oxobutan-2-yl)-6,7-dihydropyrano[4,3-c]pyrazole-1(4H)-carboxamide] was tested, and the EC50 [1] was under 1000 nM, the inhibition in vivo at 3 mg/kg (male Sprague-Dawley rats) was 27% and the EC50 [2, 3] was under 1000 nM.

CN1CCCc2c1c(-c1ccc(F)c(F)c1)nn2C(=O)N[C@H](C(=O)NCCO)C(C)(C)C [Compound 91, (S)-3-(3,4-difluorophenyl)-N-(1-(2-hydroxyethylamino)-3,3-dimethyl-1-oxobutan-2-yl)-4-methyl-4,5,6,7-tetrahydro-1H-pyrazolo[4,3-b]pyridine-1-carboxamide] showed an EC50 [1] of under 1000 nM, an inhibition in vivo at 3 mg/kg (male Sprague-Dawley rats) of 47% and an EC50 [2, 4] of under 1000 nM.

For CC(C)(C)[C@H](NC(=O)n1nc(-c2cc(Cl)ccc2F)c2c1COCC2)C(=O)NCCO [Compound 96, (S)-3-(5-chloro-2-fluorophenyl)-N-(1-(2-hydroxyethylamino)-3,3-dimethyl-1-oxobutan-2-yl)-4,5-dihydropyrano[3,4-c]pyrazole-1(7H)-carboxamide], the EC50 [1] was under 1000 nM, the inhibition in vivo at 3 mg/kg (male Sprague-Dawley rats) was 52% and the EC50 [2, 3] was under 1000 nM.

For CNC(=O)[C@@H](NC(=O)n1nc(-c2ccc(F)c(F)c2)c2c1CCCN2CCO)C(C)(C)C [Compound 101, (S)-3-(3,4-difluorophenyl)-N-(3,3-dimethyl-1-(methylamino)-1-oxobutan-2-yl)-4-(2-hydroxyethyl)-4,5,6,7-tetrahydro-1H-pyrazolo[4,3-b]pyridine-1-carboxamide], the EC50 [1] was under 1000 nM, the inhibition in vivo at 3 mg/kg (male Sprague-Dawley rats) was 28% and the EC50 [2, 4] was under 1000 nM.

In the case of CN1CCCc2c1c(-c1cc(F)ccc1F)nn2C(=O)N[C@H](C(=O)NCCO)C(C)(C)C [Compound 92, (S)-3-(2,5-difluorophenyl)-N-(1-(2-hydroxyethylamino)-3,3-dimethyl-1-oxobutan-2-yl)-4-methyl-4,5,6,7-tetrahydro-1H-pyrazolo[4,3-b]pyridine-1-carboxamide], the EC50 [1] is reported as under 1000 nM, the inhibition in vivo at 3 mg/kg (male Sprague-Dawley rats) is reported as 23% and the EC50 [2, 3] is reported as under 1000 nM.

CC(C)(C)[C@H](NC(=O)n1nc(-c2cc(F)ccc2F)c2c1CCOC2)C(=O)NCCO [Compound 87, (S)-3-(2,5-difluorophenyl)-N-(1-(2-hydroxyethylamino)-3,3-dimethyl-1-oxobutan-2-yl)-6,7-dihydropyrano[4,3-c]pyrazole-1(4H)-carboxamide] showed an EC50 [1] of under 1000 nM, an inhibition in vivo at 3 mg/kg (male Sprague-Dawley rats) of 50% and an EC50 [2, 3] of under 1000 nM.

CN1CCc2c(-c3ccc(F)c(F)c3)nn(C(=O)N[C@H](C(=O)NCCO)C(C)(C)C)c2C1 [Compound 90, (S)-3-(3,4-difluorophenyl)-N-(1-(2-hydroxyethylamino)-3,3-dimethyl-1-oxobutan-2-yl)-6-methyl-4,5,6,7-tetrahydro-1H-pyrazolo[3,4-c]pyridine-1-carboxamide] was tested, and the EC50 [1] was under 1000 nM, the inhibition in vivo at 3 mg/kg (male Sprague-Dawley rats) was 25% and the EC50 [2, 4] was over 1000 nM.
